Experiment [1] deals with T1, Mtxyd1 (native D-xylose dehydrogenase, XDH) (Thermothelomyces thermophilus, UniProt G2QN15).
T1 construct: gene MYCTH_112471; full-length native gene from cDNA, inserted at pck locus of M. thermophila JG207 delta-Mtxyl1 (DF1310); crude mycelial extract
T1 sequence (G2QN15 1-395): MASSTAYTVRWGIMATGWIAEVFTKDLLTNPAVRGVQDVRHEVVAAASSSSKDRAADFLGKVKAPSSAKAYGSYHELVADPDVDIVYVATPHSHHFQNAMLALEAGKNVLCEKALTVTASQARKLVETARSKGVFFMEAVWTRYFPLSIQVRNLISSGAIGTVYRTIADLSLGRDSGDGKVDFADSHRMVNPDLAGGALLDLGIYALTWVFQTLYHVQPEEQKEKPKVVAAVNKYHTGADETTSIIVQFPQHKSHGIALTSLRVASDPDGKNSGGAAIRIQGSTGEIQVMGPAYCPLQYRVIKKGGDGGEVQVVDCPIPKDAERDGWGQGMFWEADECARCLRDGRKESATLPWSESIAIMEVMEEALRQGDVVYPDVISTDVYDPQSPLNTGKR
As to the kind of experiment: NADP+ reduction at […] nm, crude mycelial extract of overexpressing strain. It is filed as biochemical. Conditions: 100 mM D-xylose, 2 mM NADP+, 2 mM MgCl2, 100 mM Tris-HCl pH 8.0, 30 °C.

For experiment [2], the target named is T2, Trxyd1 (D-xylose dehydrogenase, XDH) (Trichoderma reesei, UniProt G0R8G7).
T2 construct: gene TRIREDRAFT_53673; full-length gene from cDNA, inserted at pck locus of M. thermophila JG207 delta-Mtxyl1 (DF1309); crude mycelial extract
T2 sequence (G0R8G7 1-391): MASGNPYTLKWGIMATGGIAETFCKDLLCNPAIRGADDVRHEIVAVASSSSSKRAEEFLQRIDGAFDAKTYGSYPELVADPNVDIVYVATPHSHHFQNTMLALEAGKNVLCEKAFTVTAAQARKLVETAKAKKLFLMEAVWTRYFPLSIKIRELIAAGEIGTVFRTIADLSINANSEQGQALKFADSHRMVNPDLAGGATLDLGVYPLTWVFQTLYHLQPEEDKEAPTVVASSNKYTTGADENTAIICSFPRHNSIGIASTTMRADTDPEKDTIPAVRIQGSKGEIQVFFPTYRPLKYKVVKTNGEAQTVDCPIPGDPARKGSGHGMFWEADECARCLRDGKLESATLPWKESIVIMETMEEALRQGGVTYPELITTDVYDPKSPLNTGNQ
As to the kind of experiment: NAD+ or NADP+ reduction at […] nm, crude mycelial extract of overexpressing strain. It is filed as biochemical. Conditions: 100 mM D-xylose, 2 mM NAD+ or NADP+, 2 mM MgCl2, 100 mM Tris-HCl pH 8.0, 30 °C.

Each structure is given as a SMILES string.

Consider `NC(=O)c1ccc[n+]([C@@H]2O[C@H](COP(=O)(O)OP(=O)(O)OC[C@H]3O[C@@H](n4cnc5c(N)ncnc54)[C@H](OP(=O)(O)O)[C@@H]3O)[C@@H](O)[C@H]2O)c1` [NADP^+], for which, in experiment [1], the specific activity result is reported as “When using NADP^+ as a cofactor, XDH encoded by endogenous Mtxyd1 owned the highest activity”.

Regarding `OC1OC[C@@H](O)[C@H](O)[C@H]1O` (stereo partly drawn) [D-xylose], the specific activity entry in experiment [1] is “XDH encoded by endogenous Mtxyd1 owned the highest activity”; in experiment [2] it was “The enzymatic activity of XDH in strains DF1309 and DF1310 was verified”.
